From ChEMBL document CHEMBL1127973, “A comparative molecular field analysis derived model of the binding of taxol analogues to microtubules” (Bioorg Med Chem Lett, 1994) come the findings set out here.

SMILES strings stand for the structures.

For test [1], the target named is T1, Tubulin (Homo sapiens) (UniProt P68371+Q9H4B7+P0DPH7+P68366+Q13509+Q71U36+P04350+Q3ZCM7+P07437+P68363+Q9BQE3+Q6PEY2+Q13885+Q9BVA1+Q9BUF5). Kind of test: Binding affinity to microtubules, activity expressed as ID50 of compound/ID50 of paclitaxel. Type of test: protein-complex assay.
Test [2] has as its target T1, Tubulin (Homo sapiens). Kind of test: Binding affinity to microtubules, activity expressed as log 1/ID50 of compound/ID50 of paclitaxel. Type of test: protein-complex assay.

On to `CC(=O)O[C@H]1C(=O)[C@@]2(C)[C@H]([C@H](OC(=O)c3ccccc3)[C@]3(O)C[C@H](OC(=O)[C@@H](NC(=O)OC(C)(C)C)[C@H](O)c4ccccc4)C(C)=C1C3(C)C)[C@]1(OC(C)=O)CO[C@@H]1C[C@@H]2O`, for which, in test [1], the ID50 ratio is 108. For the same compound, in test [2], the Log 1/ratio is -2.03.

`CC(=O)O[C@H]1C(=O)[C@@]2(C)[C@H]([C@H](OC(=O)c3ccccc3)[C@]3(O)C[C@H](OC(=O)[C@H](O)[C@@H](NC(=O)c4ccccc4)c4ccc(F)cc4)C(C)=C1C3(C)C)[C@]1(OC(C)=O)CO[C@@H]1C[C@@H]2O`: the ID50 ratio in test [1] was 1.1. In test [2], the Log 1/ratio is -0.0414.

With `CC(=O)O[C@@]12CO[C@@H]1C[C@H](OC(=O)[C@H](O)[C@@H](O)[C@H](O)CO)[C@@]1(C)C(=O)[C@H](O)C3=C(C)[C@@H](OC(=O)[C@H](O)[C@@H](NC(=O)c4ccccc4)c4ccccc4)C[C@@](O)([C@@H](OC(=O)c4ccccc4)[C@H]21)C3(C)C`, the ID50 ratio in test [1] amounted to 0.6. Further, the Log 1/ratio in test [2] came out at 0.222.

With `COc1ccc([C@H](NC(=O)c2ccccc2)[C@@H](O)C(=O)O[C@H]2C[C@@]3(O)[C@@H](OC(=O)c4ccccc4)[C@@H]4[C@]5(OC(C)=O)CO[C@@H]5C[C@H](O)[C@@]4(C)C(=O)[C@H](OC(C)=O)C(=C2C)C3(C)C)cc1`, the ID50 ratio in test [1] came out at 0.5. Moreover, in test [2], the Log 1/ratio was determined as 0.301.
